Patent EP0222670A1, “Dissolved composition of (benzo-1,2,4-thiadiazine)-1,1-dioxide” (SHISEIDO COMPANY LIMITED, priority 1985, dated 1987)

Assay: solubilities of the dioxide in various solvents at room temperature
Assay type: physicochemical
Parameters: key: completely and transparently dissolved; x: partially not dissolved, with presence of crystals
Excerpt: The solubilities of 7-chloro-3-methyl-2H[benzo-l,2,4-thiadiazine]-l,l-dioxide in various solvents at room temperature are shown in Table l.
• *l: The dioxide is 7-chloro-3-methyl-2H-[benzo-l,2,4-thiadiazine]-l,l-dioxide • *2: Dipropylene glycol
In the Table, o: completely and transparently dissolved; x: partially not dissolved, with presence of crystals.

Substance: 7-chloro-3-methyl-2H-[benzo-l,2,4-thiadiazine]-l,l-dioxide
- solubility of Dioxide in solvent (solvent BA, Dioxide 0.2 % by weight): o
- solubility of Dioxide in solvent (solvent BA, Dioxide 1.0 % by weight): o
- solubility of Dioxide in solvent (solvent BA, Dioxide 2.0 % by weight): x
- solubility of Dioxide in solvent (solvent BA, Dioxide 3.0 % by weight): x
- solubility of Dioxide in solvent (solvent BA/IPA = 1/9, Dioxide 0.2 % by weight): o
- solubility of Dioxide in solvent (solvent BA/IPA = 1/9, Dioxide 1.0 % by weight): o
- solubility of Dioxide in solvent (solvent BA/IPA = 1/9, Dioxide 2.0 % by weight): x
- solubility of Dioxide in solvent (solvent BA/IPA = 1/9, Dioxide 3.0 % by weight): x
- solubility of Dioxide in solvent (solvent BA/IPA/aqueous alkali solution (pH = 10) = 1/3/6, Dioxide 0.2 % by weight): o
- solubility of Dioxide in solvent (solvent BA/IPA/aqueous alkali solution (pH = 10) = 1/3/6, Dioxide 1.0 % by weight): o
- solubility of Dioxide in solvent (solvent BA/IPA/aqueous alkali solution (pH = 10) = 1/3/6, Dioxide 2.0 % by weight): o
- solubility of Dioxide in solvent (solvent BA/IPA/aqueous alkali solution (pH = 10) = 1/3/6, Dioxide 3.0 % by weight): o
- solubility of Dioxide in solvent (solvent DMSO, Dioxide 0.2 % by weight): o
- solubility of Dioxide in solvent (solvent DMSO, Dioxide 1.0 % by weight): o
- solubility of Dioxide in solvent (solvent DMSO, Dioxide 2.0 % by weight): o
- solubility of Dioxide in solvent (solvent DMSO, Dioxide 3.0 % by weight): o
- solubility of Dioxide in solvent (solvent DPG (Dipropylene glycol), Dioxide 0.2 % by weight): x
- solubility of Dioxide in solvent (solvent DPG (Dipropylene glycol), Dioxide 1.0 % by weight): x
- solubility of Dioxide in solvent (solvent DPG (Dipropylene glycol), Dioxide 2.0 % by weight): x
- solubility of Dioxide in solvent (solvent DPG (Dipropylene glycol), Dioxide 3.0 % by weight): x
- solubility of Dioxide in solvent (solvent Ethyl alcohol, Dioxide 0.2 % by weight): x
- solubility of Dioxide in solvent (solvent Ethyl alcohol, Dioxide 1.0 % by weight): x
- solubility of Dioxide in solvent (solvent Ethyl alcohol, Dioxide 2.0 % by weight): x
- solubility of Dioxide in solvent (solvent Ethyl alcohol, Dioxide 3.0 % by weight): x
- solubility of Dioxide in solvent (solvent IPA, Dioxide 0.2 % by weight): o
- solubility of Dioxide in solvent (solvent IPA, Dioxide 1.0 % by weight): x
- solubility of Dioxide in solvent (solvent IPA, Dioxide 2.0 % by weight): x
- solubility of Dioxide in solvent (solvent IPA, Dioxide 3.0 % by weight): x
- solubility of Dioxide in solvent (solvent IPA/DPG = 1/1, Dioxide 0.2 % by weight): o
- solubility of Dioxide in solvent (solvent IPA/DPG = 1/1, Dioxide 1.0 % by weight): x
- solubility of Dioxide in solvent (solvent IPA/DPG = 1/1, Dioxide 2.0 % by weight): x
- solubility of Dioxide in solvent (solvent IPA/DPG = 1/1, Dioxide 3.0 % by weight): x
- solubility of Dioxide in solvent (solvent IPA/DPG/aqueous alkali solution (pH = 10) = 2/1/1, Dioxide 0.2 % by weight): o
- solubility of Dioxide in solvent (solvent IPA/DPG/aqueous alkali solution (pH = 10) = 2/1/1, Dioxide 1.0 % by weight): o
- solubility of Dioxide in solvent (solvent IPA/DPG/aqueous alkali solution (pH = 10) = 2/1/1, Dioxide 2.0 % by weight): o
- solubility of Dioxide in solvent (solvent IPA/DPG/aqueous alkali solution (pH = 10) = 2/1/1, Dioxide 3.0 % by weight): o
